# Experimental data published in EP4548971A1, “1,4-BENZOTHIAZEPINES AND RELATED COMPOUNDS WITH CYCLOPROPANOL GROUPS AS MULTI-TARGETED DRUGS” (Georg-August-Universität Göttingen Stiftung Öffentlichen …, priority 2023, dated 2025).
# “Also recorded” adds a separate entry of the source.
# Assays:
# [1] = biological target: T1, SERCA2a (Mus musculus, UniProt O55143); test: Caffeine-induced Ca2+ release assay on HL-1 cells; format: cell-based; parameters: key to SERCA2a HL-1 effect class: +++: a strong effect, comparable to or greater than that of a known compounds at a given concentration (25 µM in RyR2 R-CEPIA1er assay, 10 µM in caffeine assay and on microsomal membrane vesicles); ++: moderate effect; +: observable effect; -: no effect; settings: for SERCA2a HL-1 effect class: 10 µM in caffeine assay; for effect in caffeine-induced Ca^2+ release assay, in words: HL-1 cells incubated 2 h with compound; for effect in caffeine-induced Ca^2+ release assay, in words / EC50: 10 mM caffeine; for EC50: caffeine-induced Ca2+ release, range after the semicolon is not explained
# T1 construct: host or cells: HL-1 cardiac cells
# T1 sequence (O55143 1-998 isoform O55143-2): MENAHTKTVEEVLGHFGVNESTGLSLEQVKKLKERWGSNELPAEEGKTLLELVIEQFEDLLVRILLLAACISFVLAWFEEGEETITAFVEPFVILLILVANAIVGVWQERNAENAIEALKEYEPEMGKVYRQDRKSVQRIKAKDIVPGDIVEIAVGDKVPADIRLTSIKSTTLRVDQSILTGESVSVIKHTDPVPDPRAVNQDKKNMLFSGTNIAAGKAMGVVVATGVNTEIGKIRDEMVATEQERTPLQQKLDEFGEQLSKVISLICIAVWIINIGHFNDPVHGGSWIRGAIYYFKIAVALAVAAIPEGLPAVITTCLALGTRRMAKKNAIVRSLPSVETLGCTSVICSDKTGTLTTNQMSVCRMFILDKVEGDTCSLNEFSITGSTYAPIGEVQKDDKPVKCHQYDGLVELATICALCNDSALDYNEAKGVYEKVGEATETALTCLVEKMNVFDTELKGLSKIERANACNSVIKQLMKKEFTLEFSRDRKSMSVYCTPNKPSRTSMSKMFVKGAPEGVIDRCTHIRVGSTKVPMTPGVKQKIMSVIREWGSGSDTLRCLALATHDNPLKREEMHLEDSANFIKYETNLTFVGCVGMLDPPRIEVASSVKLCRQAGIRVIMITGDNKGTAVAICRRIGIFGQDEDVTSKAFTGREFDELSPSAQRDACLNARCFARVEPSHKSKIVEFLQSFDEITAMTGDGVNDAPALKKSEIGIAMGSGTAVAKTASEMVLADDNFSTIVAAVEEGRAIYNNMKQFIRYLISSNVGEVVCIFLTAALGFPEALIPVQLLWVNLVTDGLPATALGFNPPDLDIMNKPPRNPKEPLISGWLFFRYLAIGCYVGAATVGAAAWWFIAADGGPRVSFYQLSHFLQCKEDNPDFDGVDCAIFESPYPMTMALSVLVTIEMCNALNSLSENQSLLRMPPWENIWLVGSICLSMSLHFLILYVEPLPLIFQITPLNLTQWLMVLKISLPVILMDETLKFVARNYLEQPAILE
# Experimental: HL-1 cardiac cells (SCC065, Merck KGaA, Darmstadt, Germany) were cultivated in Claycomb's Medium (51800C, Merck KGaA, Darmstadt, Germany), supplemented with Glutamax, 10% fetal bovine serum, 0.9% Penicillin/Streptomycin and 0.1 mM Noradrenaline (Merck KGaA, Darmstadt, Germany) on fibronectin/gelatin (Merck KGaA, Darmstadt, Germany) coated culture bottles or plates two days before plating.
# HL-1 cardiac cells (50000 per well) were cultivated for 24 h in black-walled, clear-bottom 96-well micro-plates (Corning, Amsterdam, The Netherlands) covered with fibronectin/gelatin (Merck KGaA, Darmstadt, Germany) in a humidified incubator at 37 °C and 5% CO2.
# Changes in Ca^2+ concentration were measured on a multiwell plate reader TECAN Spark 20M using FLIPR 6 Calcium Assay Kit from Molecular Devices (Molecular Devices LLC, München, Germany) at 37 °C. The 1000 × stock solutions of the test compounds were prepared in DMSO. 100 µl solution of test compound in Tyrode's solution containing FLIPR Calcium 6 dye was incubated for 2 hours at 37°C and 5% COz in a humidified incubator. The time courses were recorded in each well. Fluorescence was evoked at 485 nm excitation wavelength and read out in a bottom-read mode at 525 nm. Data were recorded every 2 s, exposure - 20 flashes, excitation bandwidth - 10 nm, emission bandwidth - 15 nm. To initiate Ca^2+ influx, 25 µl of 50 mM caffeine solution in Tyrode's solution containing 2 mM CaCl2 was injected in each well (speed 100 µl/s) at 10 s time point, resulting in 10 mM final concentration in the well. The differences between the caffeine induced peak minus basal fluorescence, ΔFCaff, were taken for the analysis. The Tyrode's solution + 0.1 v/v% DMSO was used as a control. The dose response curves were calculated using the software package GraphPad Prism version 8.3.1. All data are presented as mean ± S.D. from 8 independent experiments. Y=Bottom + (Top-Bottom)/(1+10^((LogEC50-X)*HillSlope)) was used where HillSlope describes the steepness of the curve, Top and Bottom are plateaus in the units of the Y axis.
# The SERCA2a activity of the compounds was confirmed in two orthogonal biochemical assays: caffeine-induced Ca^2+ release assay and nicotinamide adenine dinucleotide (NADH) assay on microsomal membrane vesicles from mouse heart ventricles (mouse SER) and HEK-293T cells (HEK-293 ER). The effect of caffeine-induced Ca^2+ release in HL-1 cells, immortalized mouse cardiomyocytes, treated with the cytosolic Ca^2+ indicator FLIPR Calcium 6 (Molecular Devices) was investigated.
# When caffeine binds to the RyR channel, it interacts with specific amino acids of the protein, and this interaction causes conformational changes in the protein's structure [A. des Georges, O. B. Clarke, R. Zalk, Q. Yuan, K. J. Condon, R. A. Grassucci, W. A. Hendrickson, A. R. Marks, J. Frank, Structural Basis for Gating and Activation of RyR1. Cell 2016, 167, 145 - 157.e17]. This opens the RyR2 channel pore, enabling the mass release of calcium ions from the SER Ca^2+ store.
# [2] = tested on: HL-1 cardiac cells; test: CytoTox-Glo cytotoxicity assay (cell viability); format: cell-based; settings: CytoTox-Glo assay in 100 µM solutions after 24 h incubation
# Experimental: Cell viability was assessed using CytoTox-Glo™ Cytotoxicity Assay according to the manufacturing procedure (Promega GmbH). Briefly, HL-1 cardiac cells were cultivated for 24 h in black-walled, clear-bottom 96-well micro-plates (Corning) covered with fibronectin in DMEM, containing different concentrations of the tested compound (10,000 cells/well). Luminescence of a luminogenic peptide substrate was measured before and after addition of the lysis reagent (digitonin). The viable cell contribution was determined by a subtractive method. 0.1% DMSO treated cell were taken as a control.
# (§1) The membrane permeability of the derivatives was determined using cell-free transport models (PermeaPad®, innoME GmbH), and permeability rates (Pe), which are a measure of how fast a compound can cross a membrane, were established (Table 1).
# [3] = Membrane permeability, PermeaPad plate (cell-free transport model); format: in vitro ADME; settings: for Pe: permeability rate, room temperature, 24 hours
# Experimental: Membrane permeability was assessed using PermeaPad® Plate according to the manufacturing procedure (innoME GmbH, Espelkamp, Germany). Briefly, 200 µl water was added into acceptor plate. 200 µl of 100 - 500 µM test compound in water was added directly to the well membranes of the donor plate. The donor plate contains a biomimetic membrane for simulating passive mass transfer through different barriers in the body. Then the donor plate was placed into the acceptor plate wells and incubated at room temperature for 24 hours in dark. To determine peak absorbance of test compounds, absorbance spectra of acceptor solutions and initial solutions for each test compound were read out. The Permeability Rate (Pe) was calculated using the formula: Pe = C × −ln(1−(ODA)/(ODE)) cm/s, [formula]
# where ODA is the absorbance of acceptor solution, ODE is the absorbance of the standard solution; if the compound is able to permeabilize the membrane and fully reach equilibrium, 250 µM will be the final concentration of solution in the donor and acceptor wells. The coefficient C was calculated using the formula: C = (VD × VA)/((VD+VA) × Area × time), [formula] where VA - acceptor volume (cm^3), VD - donor volume (cm^3), membrane area 0.24 cm^2, time is 86,400 s.
# as §1
SMILES,SERCA2a HL-1 effect class [1],"effect in caffeine-induced Ca^2+ release assay, in words [1]",Viability [2],Pe rating in words (low / medium / high; poor) [3],Pe [3],EC50 [1]
"COc1ccc2c(c1)CN(Cc1ccc(C(=O)O)cc1)CCS2 [ARM210, reference compound]",+,clear concentration-dependent effect,90%,high,6.8 10^-6 cm/s,
"COc1ccc2c(c1)CN(CCCCNCCCCC1(O)CC1)CCS2 [Compound 13a, 1-(4-((4-(7-Methoxy-2,3-dihydrobenzo[1,4-f]-thiazepin-4(5H)-yl)butyl)amino)butyl)cyclopropan-1-ol]",+,most potent,84%,poor permeability and low,0.8 10^-6 cm/s,2.2 µM
"COc1ccc(OCCCNCCCCC2(O)CC2)cc1 [Compound 13b, 1-(4-((3-(4-methoxyphenoxy)propyl)amino)butyl)cyclopropan-1-ol]",++,,100%,high,4.0 10^-6 cm/s,8.6 µM
"COc1ccc(SCCCNCCCCC2(O)CC2)cc1 [Compound 13c, 1-(4-((3-((4-Methoxyphenyl)thio)propyl)amino)butyl)cyclopropan-1-ol]",++,,73%,high,6.9 10^-6 cm/s,7.6 µM
"COc1ccc2c(c1)CN(CCCCC1(O)CC1)CCS2 [Compound 13d, 1-(4-(7-methoxy-2,3-dihydrobenzo[1,4-f]thiazepin-4(5H)-yl)butyl)cyclopropan-1-ol]",+,least efficacious; also recorded: no saturation effect at concentrations up to 50 µM; also recorded: slight,95%,high,3.6 10^-6 cm/s,
"COc1ccc2c(c1)CN(CCCCN(CCCCC1(O)CC1)CCCCC1(O)CC1)CCS2 [Compound 14a, 1,1'-(((4-(7-Methoxy-2,3-dihydrobenzo[1,4-f]thiazepin-4(5H)-yl)butyl)azanediyl)bis(butane-4,1-diyl))bis(cyclopropan-1-ol)]",++,,80%,poor permeability and low,0.6 10^-6 cm/s,9.2 µM
"COc1ccc(SCCCN(CCCCC2(O)CC2)CCCCC2(O)CC2)cc1 [Compound 14c, 1,1'-(((3-((4-Methoxyphenyl)thio)propyl)azanediyl)bis(butane-4,1-diyl))bis(cyclopropan-1-ol)]",+++,most efficacious,90%,high,3.6 10^-6 cm/s,10.9 µM
"COc1ccc2c(c1)CN(C(=O)C(=O)O)CCS2 [Compound S36, reference compound]",-,no concentration dependent effect,94%,poor permeability and low,1.0 10^-6 cm/s,
